The record followed here is patent US20090111801A1, “SUBSTITUTED PYRAZINONE DERIVATIVES FOR USE AS A MEDICINE” (Janssen Pharmaceutica N.V., priority 2006, published 2009).

The target of series [1] is T1, 5HT-Transporter (Homo sapiens, UniProt P31645).
T1 construct: Human platelet membranes (Oceanix Biosciences Corporation, Hanover, Md., USA) were thawed; tissue Oceanix Biosciences Corporation, Hanover, Md., USA; host or cells: human platelet membranes
In words: Binding experiment for the 5HT-transporter ([3H]paroxetine, human platelet membranes). As to conditions: [3H]paroxetine 0.5 nM, read-out: h-5HTT pIC50 (converted). The method in brief: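 Competition binding of [3H]paroxetine to human platelet membranes in Tris-HCl 50 mM, 120 mM NaCl, 5 mM KCl, with filtration and scintillation counting.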

For series [2], the target named is T2, hα2A receptor (Homo sapiens, UniProt P08913).
T2 construct: expressed in transfected cells; host or cells: CHO cells, stably transfected; membrane preparation
T2 sequence (P08913 1-465): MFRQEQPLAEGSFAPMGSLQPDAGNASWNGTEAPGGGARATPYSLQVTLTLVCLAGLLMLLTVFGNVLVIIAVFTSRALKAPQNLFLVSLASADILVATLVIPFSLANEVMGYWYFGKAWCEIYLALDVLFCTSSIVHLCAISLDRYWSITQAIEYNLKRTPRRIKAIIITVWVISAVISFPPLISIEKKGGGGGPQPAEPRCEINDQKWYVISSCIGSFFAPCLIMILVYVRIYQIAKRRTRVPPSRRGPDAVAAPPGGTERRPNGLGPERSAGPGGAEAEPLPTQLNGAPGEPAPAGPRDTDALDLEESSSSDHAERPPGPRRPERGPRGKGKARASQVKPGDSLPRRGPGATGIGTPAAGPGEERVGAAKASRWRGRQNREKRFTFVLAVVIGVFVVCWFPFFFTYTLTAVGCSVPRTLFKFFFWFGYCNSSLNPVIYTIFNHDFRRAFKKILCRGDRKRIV
In words: Radioligand binding experiment for α2A-adrenoceptor ([3H]raulwolscine, CHO cell membranes). As to conditions: [3H]raulwolscine binding, read-out: h-α2A pIC50 (converted).

Series [3] addresses T3, hα2C receptor (Homo sapiens, UniProt P18825).
T3 construct: expressed in transfected cells; host or cells: CHO cells, stably transfected; membrane preparation
T3 sequence (P18825 1-462): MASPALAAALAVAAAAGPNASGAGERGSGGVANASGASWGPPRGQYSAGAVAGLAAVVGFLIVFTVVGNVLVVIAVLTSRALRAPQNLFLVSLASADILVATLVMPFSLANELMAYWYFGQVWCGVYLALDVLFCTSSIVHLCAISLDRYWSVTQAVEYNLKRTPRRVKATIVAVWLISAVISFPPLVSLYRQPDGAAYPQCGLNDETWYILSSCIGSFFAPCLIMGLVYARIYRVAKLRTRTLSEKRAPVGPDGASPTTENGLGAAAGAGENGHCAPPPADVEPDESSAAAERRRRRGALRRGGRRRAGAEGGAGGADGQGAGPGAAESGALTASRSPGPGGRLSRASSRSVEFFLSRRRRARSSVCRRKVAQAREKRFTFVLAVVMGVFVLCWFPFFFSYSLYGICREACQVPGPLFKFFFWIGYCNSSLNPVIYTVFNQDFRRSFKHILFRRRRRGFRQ
Briefly: Radioligand binding experiment for α2C-adrenoceptor ([3H]raulwolscine, CHO cell membranes). As to conditions: [3H]raulwolscine binding, read-out: h-α2C pIC50 (converted).

SMILES strings stand for the structures. Where a name gives a salt, the structure may show the parent alone.

T1 sequence (P31645 whole entry): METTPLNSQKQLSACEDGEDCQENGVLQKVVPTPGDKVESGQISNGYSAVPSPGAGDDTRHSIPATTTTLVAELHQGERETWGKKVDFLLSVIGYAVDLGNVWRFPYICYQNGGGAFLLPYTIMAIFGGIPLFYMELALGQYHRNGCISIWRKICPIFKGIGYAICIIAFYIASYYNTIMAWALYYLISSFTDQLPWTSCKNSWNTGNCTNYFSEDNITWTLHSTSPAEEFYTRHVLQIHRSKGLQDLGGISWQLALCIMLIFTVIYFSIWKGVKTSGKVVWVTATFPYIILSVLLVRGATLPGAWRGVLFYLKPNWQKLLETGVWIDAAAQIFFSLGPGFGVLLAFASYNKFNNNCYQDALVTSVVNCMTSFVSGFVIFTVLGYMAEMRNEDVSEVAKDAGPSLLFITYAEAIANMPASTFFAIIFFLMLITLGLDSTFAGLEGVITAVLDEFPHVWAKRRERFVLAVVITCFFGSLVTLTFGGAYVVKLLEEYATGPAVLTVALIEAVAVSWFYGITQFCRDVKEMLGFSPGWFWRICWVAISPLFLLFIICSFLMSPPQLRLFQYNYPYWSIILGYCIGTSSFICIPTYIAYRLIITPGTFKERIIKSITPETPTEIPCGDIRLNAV

As to `C/C(=C\c1ccccc1)CN1CCC(Nc2nccn(-c3ccsc3)c2=O)CC1` [6-4], the melting point – broadly, the temperature, or range, at which the solid turns liquid – turned out to be 210 °C. In addition, the IC50 in series [1] was 1000 nM. The IC50 in series [2] was 39.8 nM. Besides, in series [3], the IC50 was 6.31 nM.
In turn, `C/C(=C\c1ccccc1)CN1CCC(Nc2nccn(CCN3CCCCC3)c2=O)CC1` (as salt: HCl) [2-4] displayed a melting point of 294 °C.
For the molecule `C/C(=C\c1ccccc1)CN1CCC(Nc2nccn(Cc3cc(C)on3)c2=O)CC1` [6-3], the melting point stood at 107 °C. Further, the IC50 in series [1] is 2000 nM. In addition, the IC50 in series [2] was 63.1 nM. Also, the IC50 in series [3] is 31.6 nM.
For `C/C(=C\c1ccccc1)CN1CCC(Nc2nccn(Cc3ccc(CN)cc3)c2=O)CC1` [1-6], in that order: 286 °C, 398 nM, 12.6 nM and 2.51 nM.
As to `C/C(=C\c1ccccc1)CN1CCC(Nc2nccn(Cc3ccc(CNS(=O)(=O)c4ccccc4)cc3)c2=O)CC1` [1-159], the melting point stood at 128 °C. Further, the IC50 in series [1] was 794 nM. In addition, the IC50 in series [2] is 63.1 nM. In series [3], the IC50 was 25.1 nM.
In the case of `C/C(=C\c1ccccc1)CN1CCC(Nc2nccn(CCCN(C)C)c2=O)CC1` [1-14], the melting point stood at 254 °C. Further, the IC50 in series [1] is 6310 nM. In addition, the IC50 in series [2] was 63.1 nM.
`C/C(=C\c1ccccc1)CN1CCC(Nc2nccn(CCCNCc3ccccc3)c2=O)CC1` (as salt: HCl) [1-47] came in with a melting point of 270 °C.
Same read-out and setting: to `C/C(=C\c1ccccc1)CN1CCC(Nc2nccn(CC#CCN3C(=O)c4ccccc4C3=O)c2=O)CC1` (as salt: trifluoroacetate) [2-54] belongs 67 °C.
`C/C(=C\c1ccccc1)CN1CCC(Nc2nccn(Cc3ccccc3CS(=O)(=O)c3ccccc3)c2=O)CC1` [4-3] showed a melting point of 112 °C. In addition, in series [1], the IC50 was 398 nM. For the same molecule, the IC50 in series [2] was 158 nM. For the same molecule, the IC50 in series [3] is 15.8 nM.
Molecule `C/C(=C\c1ccccc1)CN1CCC(Nc2nccn(Cc3ccc(CN)cc3)c2=O)CC1` (as salt: HCl) [1-7] showed a melting point of 231 °C.
In turn, `C/C(=C\c1ccccc1)CN1CCC(Nc2nccn(Cc3ccc(CNC(=O)c4ccco4)cc3)c2=O)CC1` [1-152] came in with a melting point of 103 °C. For the same molecule, the IC50 in series [1] is 501 nM. Moreover, the IC50 in series [2] is 126 nM. In series [3], the IC50 was 31.6 nM.
For `C/C(=C\c1ccccc1)CN1CCC(Nc2nccn(Cc3ccc([N+](=O)[O-])cc3)c2=O)CC1` [5-25], in that order: 123 °C, 631 nM, 126 nM and 31.6 nM.
`CC(=O)CNCCCn1ccnc(NC2CCN(C/C(C)=C/c3ccccc3)CC2)c1=O` [1-37] had a melting point of 160 °C. In addition, the IC50 in series [1] was 1260 nM. In series [2], the IC50 is 79.4 nM. Also, the IC50 in series [3] is 3.98 nM.
For `CC(=O)c1ccc(S(=O)(=O)NCc2ccc(Cn3ccnc(NC4CCN(C/C(C)=C/c5ccccc5)CC4)c3=O)cc2)cc1` [1-165], in that order: 110 °C, 1000 nM, 158 nM and 25.1 nM.
`C/C(=C\c1ccccc1)CN1CCC(Nc2nccn(CC(=O)N(C)C)c2=O)CC1` [1-16] yielded a melting point of 128 °C. Besides, in series [1], the IC50 is more than 10000 nM. The IC50 in series [2] is 100 nM. For the same molecule, the IC50 in series [3] is 15.8 nM.
For `C=CCn1ccnc(NC2CCN(C/C(C)=C/c3ccccc3)CC2)c1=O` [7-11] the same measures were 126 °C, 2000 nM, 31.6 nM and 12.6 nM.
For `C/C(=C\c1ccccc1)CN1CCC(Nc2nccn(Cc3ccc(OC(F)(F)F)cc3)c2=O)CC1` [3-15] the same measures were 99 °C, 1260 nM, 251 nM and 126 nM.
For `C/C(=C\c1ccccc1)CN1CCC(Nc2nccn(-c3ccc(CN(C)CCN(C)C)cc3)c2=O)CC1` [1-110] the same measures were 115 °C, 501 nM, 20 nM and 2 nM.
`C/C(=C\c1ccccc1)CN1CCC(Nc2nccn(CC(=O)N3CCCCC3)c2=O)CC1` [2-5] showed a melting point of 170 °C. In series [1], the IC50 is 5010 nM. For the same molecule, in series [2], the IC50 was 126 nM. In series [3], the IC50 was 6.31 nM.
